Literature values as cited in US12029822B2, “Drug delivery systems containing oxidized cholesterols” (Georgia Tech Research Corporation, priority 2019, dated 2024).

System: AB1-HA tumor
Details: CTX treatment at Day 9

For `O=P1(N(CCCl)CCCl)NCCCO1` (stereo not shown) [CTX, Cyclophosphamide], the cure rate is given as 75%.
